According to the OPERA property sets (Mansouri et al. 2018):
Converted amounts (≈) assume the structure as drawn.

Conditions: for solubility: 20 °C

Row | Structure (SMILES) | logP | solubility [µM]
1 | Cc1ccc([N+](=O)[O-])c(O)c1 | 2.31 | 1780 (≈ 272 µg/mL)
2 | O=[N+]([O-])c1cc(C(F)(F)F)ccc1O | 2.34 | 
3 | CCC(C)c1ccc(O)c([N+](=O)[O-])c1 (stereo not given) | 3.84 | 144 (≈ 28.2 µg/mL)
4 | O=[N+]([O-])c1ccc(F)cc1O | 1.91 | 
5 | O=[N+]([O-])c1cc(-c2ccccc2)ccc1O | 3.71 | 38.9 (≈ 8.37 µg/mL)
6 | O=[N+]([O-])c1cc(Cl)ccc1O | 2.46 | 812 (≈ 141 µg/mL)
7 | O=Cc1ccc(O)c([N+](=O)[O-])c1 | 1.48 | 1120 (≈ 187 µg/mL)
8 | Cc1cc(O)ccc1[N+](=O)[O-] | 2.48 | 7760 (≈ 1190 µg/mL)
9 | Cc1cccc(O)c1[N+](=O)[O-] | 2.29 | 
10 | Cc1cc(O)c([N+](=O)[O-])cc1Cl | 2.93 | 40.7 (≈ 7.64 µg/mL)
11 | COc1ccc(O)c([N+](=O)[O-])c1 | 2.02 | 1450 (≈ 245 µg/mL)
12 | O=[N+]([O-])c1ccc(O)cc1 |  | 83400 (≈ 11600 µg/mL)
